We go through 12 compounds from ChEMBL document CHEMBL3399962, “Design and synthesis of a novel candidate compound NTI-007 targeting sodium taurocholate cotransporting polypeptide [NTCP]-APOA1-HBx-Beclin1-mediated autophagic pathway in HBV therapy” (Bioorg Med Chem, 2015).

SMILES strings stand for the structures. The source made the active and inactive calls. The rule behind the calls is not given here.

Data set [1] in a line: Cytotoxicity against human HepG2.2.15 cells assessed as cell death after 9 days by MTS assay. It counts as cell-based, HepG2 2.2.15.
Data set [2] can be described thus: Selectivity index, ratio of CC50 for human HepG2.2.15 cells to IC50 for decrease in hepatitis B viral HBeAg secretion in human HepG2.2.15 cells. It counts as functional.
In data set [3] the test system is Hepatitis B virus. Description: Antiviral activity against hepatitis B viral in human HepG2.2.15 cells assessed as HBeAg secretion after 9 days by ELISA. In kind it is functional, organism-based. The conditions noted are these: HepG2 2.2.15, 216 h. Background: In an ELISA, binding on a coated surface is turned into a signal by an enzyme label.
The test system of data set [4] is Hepatitis B virus. Put plainly: Antiviral activity against hepatitis B viral in human HepG2.2.15 cells assessed as surface antigen HBsAg secretion after 9 days by ELISA. In kind it is functional, organism-based. The conditions noted are these: HepG2 2.2.15, 216 h.
The nature of data set [5]: Selectivity index, ratio of CC50 for human HepG2.2.15 cells to IC50 for decrease in hepatitis B viral surface antigen HBsAg secretion in human HepG2.2.15 cells. In kind it is functional.
The subject of data set [6] is Hepatitis B virus. Put plainly: Antiviral activity against hepatitis B viral in human HepG2.2.15 cells assessed as viral HBcAg level after 9 days by ELISA (reference value: 14.16 +/- 1.92 ng/ml). It counts as functional, HepG2 2.2.15.
Data set [7] is described as follows: Antiproliferative activity against human HepG2.2.15 cells assessed as cell growth at 20 uM after 0 to 24 hrs by MTT assay. It counts as cell-based. The conditions noted are these: hepg2 2.2.15, 20 µM. In general terms: Tetrazolium assays rely on reduction of a dye to a coloured formazan, in cell work by metabolically active cells.
For data set [8], the system named is HepG2 2.2.15. Description: Induction of autophagy in HBV-infected human HepG2.2.15 cells assessed as decrease in NTCP level after 12 to 24 hrs by Western blot analysis. In kind it is functional.
Data set [9] has as its target Sodium/bile acid cotransporter NTCP (Homo sapiens) (UniProt Q14973). Put plainly: Induction of human NTCP receptor inhibition-mediated autophagy in HBV-infected human HepG2.2.15 cells assessed as MDC positive cells at 20 uM after 24 hrs by […] (reference value: 0.60%). Further details: scale not given: the % may be the effect or the level left.

The target is the same in data set [10]. Put plainly: Induction of human NTCP receptor inhibition-mediated autophagy in HBV-infected human HepG2.2.15 cells assessed as MDC positive cells at 20 uM after 12 hrs by […] (reference value: 0.60%). On the set-up: scale not given: the % may be the effect or the level left.
The test system of data set [11] is HepG2 2.2.15. Description: Induction of autophagy in HBV-infected human HepG2.2.15 cells assessed as decrease in HBx level after 12 to 24 hrs by Western blot analysis. It counts as functional.
Data set [12] deals with HepG2 2.2.15. Put plainly: Induction of autophagy in HBV-infected human HepG2.2.15 cells assessed as decrease in APOA1 level after 12 to 24 hrs by Western blot analysis. In kind it is functional.
Data set [13] relates to Hepatitis B virus. Description: Antiviral activity against hepatitis B viral in human HepG2.2.15 cells assessed as viral DNA replication after 9 days by real-time PCR analysis (reference value: 6.12 +/- 1.46 AU). It counts as functional, HepG2 2.2.15. (In general: Quantitative PCR measures a nucleic acid by following its amplification.)
Data set [14] has as its system Hepatitis B virus. Description: Antiviral activity against hepatitis B viral in human HepG2.2.15 cells assessed as viral surface antigen HBsAg level after 9 days by ELISA (reference value: 721 +/- 32 pg/ml). In kind it is functional, HepG2 2.2.15.

Sodium/bile acid cotransporter NTCP (Homo sapiens), sequence (Q14973 whole entry, looked up): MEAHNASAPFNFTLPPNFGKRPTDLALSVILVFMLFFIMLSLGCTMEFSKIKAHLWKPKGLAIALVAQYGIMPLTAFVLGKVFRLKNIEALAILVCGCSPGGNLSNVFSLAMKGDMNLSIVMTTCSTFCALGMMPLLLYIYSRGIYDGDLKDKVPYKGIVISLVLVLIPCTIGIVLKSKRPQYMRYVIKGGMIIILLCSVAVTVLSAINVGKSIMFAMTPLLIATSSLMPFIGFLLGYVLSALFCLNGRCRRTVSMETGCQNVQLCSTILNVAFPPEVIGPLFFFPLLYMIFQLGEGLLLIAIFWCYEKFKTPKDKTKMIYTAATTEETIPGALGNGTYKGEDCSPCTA

Consider `COC(=O)Nc1nc2nc(C(=O)c3ccc(OC)c(OC)c3)ccc2[nH]1`, for which the CC50 at 216 h in [1] was determined as 102 µM. Further, the figures for the “Selectivity Index” value in data set [2] and in data set [5] were 1.3 and 2.74, respectively. Also, the values for the IC50 with Hepatitis B virus [3] and in the data set on Hepatitis B virus [4] were 78.4 µM and 37.3 µM, respectively.
On to `COC(=O)Nc1nc2nc(C(=O)c3ccc(O)c(OC)c3)ccc2[nH]1`, for which the Activity is 8140 pg/mL with Hepatitis B virus [6]; “Toxic” in data set [7]; 31.1% in data set [9]; 9.3% in [10]; 2.46 a.u in the data set on Hepatitis B virus [13]; 258 pg/mL in the data set on Hepatitis B virus [14]. In addition, in [1], the CC50 at 216 h came out at 197 µM. Further, the inhibition entry with HepG2 2.2.15 [8], with HepG2 2.2.15 [11] and in the data set on HepG2 2.2.15 [12] was “Active” throughout. Also, the “Selectivity Index” value in data set [2] is 7.86; in [5], 11. Also, the IC50 was 25.1 µM in the data set with Hepatitis B virus [3] and 17.9 µM in the data set with Hepatitis B virus [4].
Turning to `COC(=O)Nc1nc2cc(C(=O)c3ccco3)ccc2[nH]1`, in [1], the CC50 at 216 h is over 1000 µM. For the same compound, the IC50 with Hepatitis B virus [3] and in the data set on Hepatitis B virus [4] was over 1000 µM throughout.
Take `COC(=O)Nc1nc2cc(C(=O)c3cccc(OC)c3)ccc2[nH]1`: the CC50 at 216 h in [1] is 117 µM. Also, the “Selectivity Index” value in [2] is on record as 0.24; in [5], 1.19. Further, the IC50 turned out to be 479 µM in the data set on Hepatitis B virus [3] and 97.5 µM in the data set on Hepatitis B virus [4].
For `COC(=O)Nc1nc2nc(C(=O)c3cccc(OC)c3)ccc2[nH]1`, the CC50 at 216 h in data set [1] turned out to be 78.1 µM. Besides, the entries for the “Selectivity Index” value in data set [2] and in data set [5] were 0.47 and 1.89, respectively. The IC50 with Hepatitis B virus [3] is 167 µM; in the data set on Hepatitis B virus [4] it was 41.2 µM.
Turning to `COC(=O)Nc1nc2ccc(C(=O)c3ccccc3)cc2[nH]1` [MEBENDAZOLE], the CC50 at 216 h in [1] is over 1000 µM. For the same compound, the IC50 with Hepatitis B virus [3] and with Hepatitis B virus [4] was over 1000 µM each time.
On to `COC(=O)Nc1nc2cc(C(=O)c3ccc(OC)c(OC)c3)ccc2[nH]1`, for which, in data set [1], the CC50 at 216 h stood at 48.5 µM. For the same compound, the “Selectivity Index” value in [2] is listed as 0.15; in data set [5], 0.25. Further, the results for the IC50 in the data set with Hepatitis B virus [3] and in the data set on Hepatitis B virus [4] were 312 µM and 190 µM, respectively.
Regarding `Nc1ncnc2c1ncn2CCOCP(=O)(O)O` [ADEFOVIR], the figures for the Activity in the data set on Hepatitis B virus [6], with Hepatitis B virus [13] and in the data set with Hepatitis B virus [14] were 12100 pg/mL, 4.12 a.u and 571 pg/mL, respectively. Further, the CC50 at 216 h in data set [1] came to 490 µM. For the same compound, the figures for the “Selectivity Index” value in data set [2] and in data set [5] were 2.27 and 1.9, respectively. Besides, the IC50 in the data set with Hepatitis B virus [3] came to 215 µM; with Hepatitis B virus [4], 257 µM.
Regarding `COC(=O)Nc1nc2cc(C(=O)c3ccc(F)cc3)ccc2[nH]1` [FLUBENDAZOLE], the Activity in the data set with Hepatitis B virus [6] turned out to be 10100 pg/mL; in the data set on Hepatitis B virus [13], 3.76 a.u; in the data set on Hepatitis B virus [14] it was 361 pg/mL. The “Selectivity Index” value worked out at 4.75 in data set [2] and 2.5 in data set [5].
For the compound `COC(=O)Nc1nc2cc(C(=O)c3cccc(F)c3)ccc2[nH]1`, in data set [1], the CC50 at 216 h is 21.2 µM. The “Selectivity Index” value in [2] amounted to 0.05; in [5], 0.09. The figures for the IC50 with Hepatitis B virus [3] and in the data set on Hepatitis B virus [4] were 397 µM and 245 µM, respectively.
For `COC(=O)Nc1nc2cc(C(=O)c3ccc(O)c(OC)c3)ccc2[nH]1`, in [1], the CC50 at 216 h is 105 µM. For the same compound, the “Selectivity Index” value turned out to be 0.49 in data set [2] and 3.55 in data set [5]. In addition, the values for the IC50 in the data set on Hepatitis B virus [3] and with Hepatitis B virus [4] were 216 µM and 29.7 µM, respectively.
As for `COC(=O)Nc1nc2cc(C(=O)c3ccccn3)ccc2[nH]1`, in data set [1], the CC50 at 216 h is over 1000 µM. Moreover, the IC50 in the data set with Hepatitis B virus [3] and in the data set on Hepatitis B virus [4] was over 1000 µM throughout.

What is called CC50 is the concentration at which the toxic effect on the cells reaches its halfway point. By IC50 is commonly meant the concentration at which inhibition is half-maximal.
